According to patent US6664284B2, “Stabilized carvedilol injection solution” (Roche Diagnostics GmbH, priority 1998, dated 2003):
Converted amounts (≈) assume the structure as drawn.

How the values were obtained:
[1] = physchem; conditions: aqueous with cosolvent or surfactant or cyclodextrin
[2] = Solubility of loop diuretics in the acidic to maximum neutral aqueous formulations; conditions: acidic to neutral aqueous carvedilol injection solutions, aqueous with cosolvent or surfactant or cyclodextrin
[3] = system: lipid peroxidation; conditions: reported by Yue et al.; cited from earlier work
[4] = physchem; conditions: pH 6.1, water

**Q.** Which solubility [1] does the source give for Cc1cccc(Nc2ccncc2S(=O)(=O)NC(=O)NC(C)C)c1 [Torasemide] here?
**A.** The solubility was 1000 to 2000 µg/mL (≈ 2870 to 5740 µM).

**Q.** For NS(=O)(=O)c1cc(-c2nnn[nH]2)c(NCc2cccs2)cc1Cl [azosemide], which solubility [2] is on record?
**A.** The solubility was 1000 to 3000 µg/mL (≈ 2700 to 8090 µM).

**Q.** Which results are given for COc1ccccc1OCCNCC(O)COc1cccc2[nH]c3ccccc3c12 (stereo not drawn) [carvedilol, 1-(9H-carbazol-4-yloxy)-3-[[2-(2-methoxyphenoxy)ethyl]amino]-2-propanol]?
**A.** solubility of carvedilol in water (pH 6.1): about 0.2 mg/100 ml; pH value resulting from saturated solution in water (water): 6.1; antioxidative activity, lipid peroxidation [3]: inhibit lipid peroxidation; solubility [4]: ~2 µg/mL (≈ 4.92 µM)
